The values below come from ChEMBL document CHEMBL2074195, “The role of intestinal P-glycoprotein in the interaction of digoxin and rifampin” (J Clin Invest, 1999).

For this series, the target named is ATP-dependent translocase ABCB1 (Homo sapiens, UniProt P08183). As to the kind of experiment: TP_TRANSPORTER: Western in vivo, quantitative immunohistochemistry. In kind it is functional, organism-based.

Molecules are shown by their SMILES.

Sequence of ATP-dependent translocase ABCB1 (P08183 whole entry): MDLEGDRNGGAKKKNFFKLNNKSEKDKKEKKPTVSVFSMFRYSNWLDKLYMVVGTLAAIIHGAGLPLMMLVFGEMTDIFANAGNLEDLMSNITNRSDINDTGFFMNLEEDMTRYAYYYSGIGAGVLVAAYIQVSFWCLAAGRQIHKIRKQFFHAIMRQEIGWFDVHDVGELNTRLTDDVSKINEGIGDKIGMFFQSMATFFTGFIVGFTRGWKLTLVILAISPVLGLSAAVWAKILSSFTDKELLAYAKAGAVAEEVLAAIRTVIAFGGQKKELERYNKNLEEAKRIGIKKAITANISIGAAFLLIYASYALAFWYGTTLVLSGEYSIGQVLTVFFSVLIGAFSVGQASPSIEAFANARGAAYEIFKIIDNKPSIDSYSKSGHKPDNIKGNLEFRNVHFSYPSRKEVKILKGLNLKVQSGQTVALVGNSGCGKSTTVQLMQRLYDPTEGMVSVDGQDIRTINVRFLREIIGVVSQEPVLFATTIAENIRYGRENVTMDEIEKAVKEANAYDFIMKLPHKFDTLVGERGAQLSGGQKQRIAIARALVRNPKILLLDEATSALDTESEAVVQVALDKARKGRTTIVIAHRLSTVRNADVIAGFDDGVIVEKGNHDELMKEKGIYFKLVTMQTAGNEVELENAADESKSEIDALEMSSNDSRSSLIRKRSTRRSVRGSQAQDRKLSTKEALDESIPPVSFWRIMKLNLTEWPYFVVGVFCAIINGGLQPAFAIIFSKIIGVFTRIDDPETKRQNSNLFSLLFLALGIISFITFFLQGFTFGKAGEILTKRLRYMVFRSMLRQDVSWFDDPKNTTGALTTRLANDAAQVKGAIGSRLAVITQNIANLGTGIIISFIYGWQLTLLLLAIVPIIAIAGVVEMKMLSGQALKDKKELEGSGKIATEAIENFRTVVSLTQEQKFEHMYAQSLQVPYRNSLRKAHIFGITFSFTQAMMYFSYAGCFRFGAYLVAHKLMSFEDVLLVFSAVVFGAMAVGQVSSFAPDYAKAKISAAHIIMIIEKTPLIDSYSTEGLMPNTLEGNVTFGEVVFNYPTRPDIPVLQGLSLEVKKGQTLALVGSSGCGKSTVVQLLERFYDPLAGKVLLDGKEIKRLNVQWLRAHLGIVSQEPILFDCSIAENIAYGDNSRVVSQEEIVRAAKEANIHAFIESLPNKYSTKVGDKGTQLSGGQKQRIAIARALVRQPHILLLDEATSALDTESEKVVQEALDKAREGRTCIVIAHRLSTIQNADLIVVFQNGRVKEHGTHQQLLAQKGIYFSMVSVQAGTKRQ

Consider `CO[C@H]1/C=C/O[C@@]2(C)Oc3c(C)c(O)c4c(O)c(c(/C=N/N5CCN(C)CC5)c(O)c4c3C2=O)NC(=O)/C(C)=C\C=C\[C@H](C)[C@H](O)[C@@H](C)[C@@H](O)[C@@H](C)[C@H](OC(C)=O)[C@@H]1C` [RIFAMPIN], for which the Activity entry was “inducer [+]”.
